We go through 19 compounds from patent US20070179123A1, “Methods and compositions for treating diseases associated with pathogenic proteins” (priority 2005, published 2007).

In general, IC50 refers to the midpoint of a concentration-inhibition curve. By inhibition is commonly meant the percentage by which the read-out fell short of the control.

Converted amounts (≈) assume the structure as drawn. “And” between values parts separate entries of the source, which are not always exact repeats. Equal entries are not always repeated.

Series [1] addresses amyloid peptide (Homo sapiens, UniProt P05067). The series can be described thus: Inhibition of amyloid fibrillogenesis, Congo Red assay.
The target of series [2] is T1, Aβ42 (Homo sapiens, UniProt P05067).
T1 construct: 40 μM fresh Aβ42, Lanes 3-7: 40 μM Aβ42 with mefloquin
In words: Amyloid fibrillogenesis gel assay. The format is biochemical. The note with it: 40 μM Aβ42, 3-100 μg/ml compound, 5 days. The procedure: (§1) The 40 μM solution was used in fibrillogenesis assay, as described below. The 60 μM peptide solution was undisturbed for six months and allowed to form fibrils, and was utilized in a fibril disassociation assay.
(§2) Mefloquin was dissolved in DMSO and diluted 100 fold into the final reaction mixture, keeping the DMSO concentration constant at 1% (v/v). After incubation, 10 ul of each sample was mixed with 2.5 μl of 4×SDS-sample buffer (Invitrogen), and loaded onto a precast 12% BT gel (Invitrogen). The electrophoresis was run with MES running buffer (Invitrogen) at 200V, and the gels were stained using a silverXpress silver staining kit (Invitrogen). The lane assignments are as follows: Lane 1: molecular weight markers, 2; 40 μM fresh Aβ42, Lanes 3-7: 40 μM Aβ42 with mefloquin from 0, 3, 10, 30 to 100 μg/ml. Lanes 8-12: 10 μl Aβ42 fibrils with mefloquin from 0, 3, 10, 30 to 100 μg/ml.
(§3) Gels were photographed and scanned, and the band densities was analyzed using NIH Imagequant, version 5.2 (GE Healthcare, Sunnyvale, Calif.).

Series [3] addresses PrP^Sc in 22L-infected N2a cells (Mus musculus, UniProt P04925). In words: cell-based. The note with it: for IC50: IC50 for purging of PRP^Sc in 22L-infected N2a cells.
The target in series [4] is yeast prion protein Sup-NM (Saccharomyces cerevisiae, UniProt P05453). The series can be described thus: biochemical. As to conditions: for IC50: IC50 for inhibition of Sup35 yeast prion polymerization.
In series [5] the target is PrP^Sc in RML-infected N2a cells (Mus musculus, UniProt P04925). In words: cell-based. As to conditions: for IC50: IC50 for purging of PRP^Sc in RML-infected N2a cells.
The target in series [6] is Aβ42 fibrils (Homo sapiens, UniProt P05067). In words: Fibril disassociation gel assay. The format is biochemical. The note with it: 3-100 μg/ml compound. The procedure: as §1, §2, §3
Series [7] has as its system RML-infected N2a cells.
Series [8] has as its system 22L-infected N2a cells. In words: Toxicity seen in 22L-infected N2a cell assay (light microscopy). Format: cell-based, mouse. As to conditions: @ 10 μM. The protocol:
10 mM solutions of tafenoquine were prepared and diluted in DMSO and then into PBS prior to being introduced to the cell medium. 5 μL of solutions were added to the cell medium. DMSO concentrations in the cell media were never higher than 0.5% (v/v). After tafenoquine was added, the cells were incubated for 5 days at 37° C. in a CO2 incubator before being lysed. Prior to cell lysis, the cells were inspected by light microscopy for toxicity, bacterial contamination, and density compared to controls. After removal of the cell media, 50 μL of lysis buffer was added to each well. Lysis buffer was composed of 0.5% (w/v) Triton X-100, 0.5% (w/v) sodium deoxycholate, 5 mM Tris-HCl, pH 7.4 at 4° C., 5 mM EDTA, and 150 mM NaCl. Five minutes after adding lysis buffer, 25 μL of 0.1 mg/mL PK (Calbiochem) in TBS was added to each well and incubated at 37° C. for 50 minutes. 225 μL of 1 mM Pefabloc (Boehringer Mannheim) was then added to each well to inhibit PK activity. 250 μL of 1 mM Pefabloc was added to samples that were not PK-treated.

The subject of series [9] is yeast PSI^+ (the yeast prion protein Sup35). The series can be described thus: microbe, parasite or virus in culture. The format is cell-based.

Sequence of PrP^Sc in 22L-infected N2a cells (P04925 23-230 limits assumed): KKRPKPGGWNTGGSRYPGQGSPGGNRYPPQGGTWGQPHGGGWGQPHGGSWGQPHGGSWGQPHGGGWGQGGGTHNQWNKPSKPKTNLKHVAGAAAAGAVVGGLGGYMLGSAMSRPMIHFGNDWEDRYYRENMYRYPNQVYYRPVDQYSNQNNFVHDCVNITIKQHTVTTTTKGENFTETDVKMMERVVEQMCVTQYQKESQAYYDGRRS
Sequence of PrP^Sc in RML-infected N2a cells (P04925 23-230 limits assumed): as above
Sequence of yeast prion protein Sup-NM (P05453 1-254 limits assumed): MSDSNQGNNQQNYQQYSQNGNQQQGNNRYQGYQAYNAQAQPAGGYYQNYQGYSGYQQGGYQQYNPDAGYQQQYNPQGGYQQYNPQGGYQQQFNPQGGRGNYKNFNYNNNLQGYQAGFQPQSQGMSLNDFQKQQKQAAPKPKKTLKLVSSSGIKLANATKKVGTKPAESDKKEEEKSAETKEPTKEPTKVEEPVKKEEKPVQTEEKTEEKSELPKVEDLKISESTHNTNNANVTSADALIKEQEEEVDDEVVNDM
Sequence of amyloid peptide (P05067 672-713): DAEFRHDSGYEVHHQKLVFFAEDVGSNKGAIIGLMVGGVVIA
T1 sequence (P05067 672-713, species assumed): as the sequence (P05067 672-713) above
Sequence of Aβ42 fibrils (P05067 672-713, species assumed): as the sequence (P05067 672-713) above

For the compound `COc1cc(CO)c2c(Oc3cccc(C(F)(F)F)c3)c(OC)cc(NC(C)CCCN)c2n1` (stereo not drawn) [compound 8], the IC50 in series [1] is around 10.4 µM.
As for `COc1cc(NC(C)CCCN)c2nccc(C)c2c1Oc1cccc(C(F)(F)F)c1` (stereo not drawn) [compound 3], the “inhibition of fibrillogenesis of amyloid peptide, gel assay (in words)” value in [2] is “inhibited fibrillogenesis”. For the same compound, the IC50 in series [3] is 0.508 µM and 1.2 µM; in series [4] (thioflavin T, 25° C.), ~34.6 µM and 34.6 µM; in series [1], 23.1 µM; in [5], 0.609 µM and 0.54 µM. In addition, the “disassociation of amyloid fibrils, gel assay (in words)” value in [6] is listed as “increase of monomeric amyloid peptide”.
With `C=CC1CN2CCC1CC2[C@@H](O)c1ccnc2ccc(OC)cc12` (stereo partly drawn), the IC50 in [5] came out at 3 µM.
For `COc1cc(NCCCCCNC(C)C)c2nccc(C)c2c1`, in series [1], the IC50 is around 15.8 µM.
Turning to `COc1cc(NC(C)CCCN)c2ncccc2c1` (stereo not drawn), the IC50 in series [5] was below 10 µM.
`CCC1CN2CCC1CC2[C@@H](O)c1ccnc2ccc(OC)cc12` (stereo partly drawn): in [7], the “Toxicity (note in the RML-infected N2a cells column)” value is “(toxic @ μM)”.
Take `C=CC1CN2CCC1CC2[C@H](O)c1ccnc2ccc(OC)cc12` (stereo partly drawn): it took 6 µM to reach half-maximal inhibition in [5] (IC50).
Regarding `Oc1ccc(Cl)c2cccnc12`, the “Toxicity (note in the 22L-infected N2a cells column)” value in series [8] was “Toxic @ 10 μM”.
In series [5], `C=CC1CN2CCC1CC2[C@@H](O)c1ccnc2ccccc12` (stereo partly drawn) returned a half-maximal inhibitory concentration (IC50) of 6 µM.
The same measure, in the same setting: the figure for `CCC1CN2CCC1CC2[C@H](O)c1ccnc2ccc(OC)cc12` (stereo partly drawn) is 12.5 µM; for `C=CC1CN2CCC1CC2[C@H](O)c1ccnc2ccccc12` (stereo partly drawn) it is 18 µM.
Consider `COc1cc(C)c2c(Oc3cccc(C(F)(F)F)c3)c(OC)cc(NC(C)CCCN)c2n1` (racemic) [tafenoquine, (±)-8-[(4-amino-1-methylbutyl)amino]-2,6-dimethoxy-4-methyl-5-(3-trifluoromethylphenoxy)quinoline], for which the IC50 is above 2.2 µM in series [3]; 11.2 µM in series [4] (thioflavin T, 25° C.); 0.716 µM and 0.72 µM in series [5]; 4.5 µg/mL (≈ 9.71 µM) in [9] (Saccharomyces cerevisiae, 24 h, read-out: IC50 for inhibition of induction of PSI+). The “inhibition of Sup-NM amyloid polymerization (in words)” value in series [4] (concentrations up to 200 μg/mL) was “nearly complete inhibition”.
Take `OC(c1cc(C(F)(F)F)nc2c(C(F)(F)F)cccc12)C1CCCCN1` (racemic) [mefloquine, DL-erythro-α-2-piperidyl-2,8-bis(trifluoromethyl)-4-quinolinemethanol, reference compound]: the “inhibition of fibrillogenesis of amyloid peptide, gel assay (in words)” value in series [2] is reported as “inhibited fibrillogenesis”. The IC50 in series [3] is 1.27 µM and 1.2 µM; in [5], 0.5 µM. In addition, the inhibition at 150 µg/mL in [4] (read-out: inhibition of the polymerization of Sup-NM) is around 55%. Besides, the “disassociation of amyloid fibrils, gel assay (in words)” value in series [6] is reported as “increase of monomeric amyloid peptide”. The “inhibition of the induction of PSI+ (in words)” value in [9] is “concentration dependent inhibition”.
As to `COc1cc(NC(C)CCC(C)(C)N)c2nccc(C)c2c1Oc1cccc(C(F)(F)F)c1` (stereo not drawn), the IC50 in [1] lay in the range of 32.5 to 65 µM.
`C=CC1CN2CCC1CC2C(O)c1ccnc2ccc(OC)cc12` (stereo not drawn) gave an IC50 in series [3] of 3 to 5 µM.
The same measure, in the same setting: the figure for `CCN(CC)CCCC(C)Nc1cc(OC)cc2c(C)ccnc12` (stereo not drawn) is 3 to 5 µM.
`CCCCCCN(CCCCCC)CCCCCCNc1cc(OC)cc2c(C)ccnc12` gave an IC50 in [1] below 11 µM.
Take “(±)-8-[(4-amino-1-methylbutyl) amino]-2,6-dimethoxy-4-methyl-5-(3-trifluoromethylphenoxy)quinoline [tafenoquine]”: the “IC50 for purging of PRP^Sc in 22L-infected N2a cells” value in series [3] was determined as 0.44 µg/mL. Besides, in [4] (thioflavin T, 25° C.), the “IC50 for inhibition of Sup35 yeast prion polymerization” value turned out to be 5.2 ± 1.1 µg/mL. In addition, the “IC50 for purging of PRP^Sc in RML-infected N2a cells” value in series [5] was found to be 0.332 µg/mL. In addition, the “IC50 for inhibition of induction of PSI+” value in series [9] (24 h with 50 μM copper sulfate) stood at 4.5 µg/mL.
Take `COc1cc(C)c2c(Oc3cccc(C(F)(F)F)c3)c(OC)cc(NC(C)CCCNO)c2n1` (stereo not drawn): the IC50 in [5] is around 10.4 µM.
